These results are taken from patent publication US7915297B2, “Isoxazole derivatives and use thereof” (SK Holdings Co., Ltd., priority 2005, dated 2011).

Assay [1] concerns ST-2, a murine bone marrow stromal T cell. In words: Differentiation of ST2 cell line into osteoblasts, alkaline phosphatase activity. The assay is classed as cell-based. The following applies: Mus musculus, 96 h; ST-2 cells, 11 μM compound, 4 days; control treated only with ascorbic acid and β-glycerolphosphate = 100; read-out: ALP Activity (% Control). The method, then: The derivatives synthesized according to the present invention were assayed for their ability to differentiate stem cells into osteoblasts. In this regard, ST-2, a murine bone marrow stromal T cell, was used to measure the activity of bone-specific alkaline phosphatase, a marker of early-stage osteoblast differentiation. In detail, the cell line was cultured in an MEM supplemented with penicillin-streptomycin (100 Units/mL) and heat-inactivated 5% fetal bovine serum under standard culture conditions (5% CO2, 37° C., 100% relative humidity). […] The suspension was diluted with the same medium to adjust the cell count to 5,000˜10,000 cells per well, and was moved in a 96-well microtiter, subsequently. After being incubated for 24 hrs, the cells were treated in a medium containing 50 μg/ml of ascorbic acid and 5 mM of β-glycerolphosphate with various concentrations of the isoxazole derivatives synthesized in Preparation Examples. During incubation for one to nine days, the Alkaline phosphatase activity was analyzed using a […] Assay kit (Promega, U.S.A.) according to the protocol described in the manual provided by the manufacturer. The activities were measured in cells which had been incubated at 11 μM of each of the compounds for 4 days. Data on the activities of the isoxazole derivatives synthesized are given in Tables 44 to 47 and are expressed as percentages of ALP relative to that measured in the control, which was treated only with ascorbic acid and β-glycerolphosphate. ALP activities according to the concentrations of Derivative (1) are depicted in FIG. 5.

The subject of assay [2] is Wnt/β-catenin signaling (β-catenin activity) in SW480 cell line. The assay is described as follows: Cell-based Wnt agonist screening, TCF luciferase reporter, SW480 (TCF-FL). Details: species or system human. The settings on record: Homo sapiens, % of LiCl (20 mM), 24 h, read-out: Max. Activity (%); for Emax at 120 µM: Con. 120 μM; for Emax at 1 µM: Con. 1 μM; for Emax at 30 µM: Con. 30 μM. Put shortly:
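HEK293 and SW480 lines stably carried a 5X TCF firefly luciferase reporter under G418 selection. Cells (8,000–15,000/well, RPMI 1640 with 5% FBS) were grown 24 h, then treated with compound for 24 h. Luciferase activity was expressed as percent of the 20 mM LiCl positive control.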
Background: A reporter such as luciferase makes a cellular process visible.

Regarding `O=C(NCCN1CCN(c2ccc([N+](=O)[O-])cc2)CC1)c1cc(-c2ccco2)on1` [Derivative (180), 5-furan-2-yl-isoxazole-3-carboxylic acid {2-[4-(4-nitrophenyl)-piperazin-1-yl]-ethyl}-amide], in assay [1], the activity at 11 µM was 181%. Also, the Emax at 120 µM in assay [2] came to 45%.

In the case of `COc1ccc(N2CCN(CCNC(=O)c3cc(-c4ccco4)on3)CC2)cc1` [Derivative (181), 5-furan-2-yl-isoxazole-3-carboxylic acid {2-[4-(4-methoxyphenyl)-piperazin-1-yl]-ethyl}-amide], in assay [1], the activity at 11 µM stood at 681%. Further, the Emax at 1 µM in assay [2] stood at 73%.

`O=C(NCCN1CCN(c2ccccn2)CC1)c1cc(-c2ccco2)on1` [Derivative (182), 5-furan-2-yl-isoxazole-3-carboxylic acid [2-(4-pyridin-2-yl-piperazin-1-yl)-ethyl]-amide]: the activity at 11 µM in assay [1] came to 887%. The Emax at 30 µM in assay [2] worked out at 413%.

Turning to `Cc1ccc(N2CCN(CCNC(=O)c3cc(-c4ccco4)on3)CC2)cc1` [Derivative (183), 5-furan-2-yl-isoxazole-3-carboxylic acid {2-[4-(4-methylphenyl)-piperazin-1-yl]-ethyl}-amide], the activity at 11 µM in assay [1] was found to be 127%. In addition, in assay [2], the Emax at 120 µM came out at 114%.

Consider `O=C(NCCN1CCN(c2ccc(Cl)cc2)CC1)c1cc(-c2ccco2)on1` [Derivative (184), 5-furan-2-yl-isoxazole-3-carboxylic acid {2-[4-(4-chlorophenyl)-piperazin-1-yl]-ethyl}-amide], for which, in assay [1], the activity at 11 µM was found to be 126%. Further, the Emax at 30 µM in assay [2] stood at 70%.

For the compound `COc1cccc(N2CCN(CCNC(=O)c3cc(-c4ccco4)on3)CC2)c1` [Derivative (185), 5-furan-2-yl-isoxazole-3-carboxylic acid {2-[4-(3-methoxyphenyl)-piperazin-1-yl]-ethyl}-amide], the activity at 11 µM in assay [1] amounted to 714%. The Emax at 30 µM in assay [2] was found to be 810%.

For `COc1ccc(N2CCN(CCNC(=O)c3cc(-c4ccco4)on3)CC2)cc1OC` [Derivative (186), 5-furan-2-yl-isoxazole-3-carboxylic acid {2-[4-(3,4-dimethoxyphenyl)-piperazin-1-yl]-ethyl}-amide], the activity at 11 µM in assay [1] turned out to be 272%. Besides, in assay [2], the Emax at 30 µM was 553%.

As for `COc1ccc(N2CCN(CCNC(=O)c3cc(-c4ccco4)on3)CC2)c(OC)c1` [Derivative (187), 5-furan-2-yl-isoxazole-3-carboxylic acid {2-[4-(2,4-dimethoxyphenyl)-piperazin-1-yl]-ethyl}-amide], the activity at 11 µM in assay [1] amounted to 99%. Besides, the Emax at 120 µM in assay [2] was determined as 179%.

Consider `COc1cc(OC)cc(N2CCN(CCNC(=O)c3cc(-c4ccco4)on3)CC2)c1` [Derivative (188), 5-furan-2-yl-isoxazole-3-carboxylic acid {2-[4-(3,5-dimethoxyphenyl)-piperazin-1-yl]-ethyl}-amide], for which, in assay [1], the activity at 11 µM was 151%. Moreover, the Emax at 1 µM in assay [2] was determined as 200%.

As for `COc1cccnc1N1CCN(CCNC(=O)c2cc(-c3ccco3)on2)CC1` [Derivative (189), 5-furan-2-yl-isoxazole-3-carboxylic acid {2-[4-(3-methoxy-pyridin-2-yl)-piperazin-1-yl]-ethyl}-amide], the activity at 11 µM in assay [1] was 220%. In addition, in assay [2], the Emax at 30 µM was found to be 238%.

`Cc1cccnc1N1CCN(CCNC(=O)c2cc(-c3ccco3)on2)CC1` [Derivative (190), 5-furan-2-yl-isoxazole-3-carboxylic acid {2-[4-(3-methyl-pyridin-2-yl)-piperazin-1-yl]-ethyl}-amide]: the activity at 11 µM in assay [1] is 269%. Further, the Emax at 120 µM in assay [2] worked out at 372%.

Take `O=C(NCCN1CCN(c2ncccc2C(F)(F)F)CC1)c1cc(-c2ccco2)on1` [Derivative (191), 5-furan-2-yl-isoxazole-3-carboxylic acid {2-[4-(3-trifluoromethyl-pyridin-2-yl)-piperazin-1-yl]-ethyl}-amide]: the activity at 11 µM in assay [1] came to 309%. For the same compound, in assay [2], the Emax at 30 µM was 91%.

Turning to `O=C(NCCN1CCN(c2ncccn2)CC1)c1cc(-c2ccco2)on1` [Derivative (192), 5-furan-2-yl-isoxazole-3-carboxylic acid [2-(4-pyrimidin-2-yl-piperazin-1-yl)-ethyl]-amide], in assay [1], the activity at 11 µM was found to be 398%. Moreover, in assay [2], the Emax at 30 µM was 137%.

As for `COc1ccccc1N1CCN(CCNC(=O)c2cc(-c3ccco3)on2)CC1` [Derivative (193), 5-furan-2-yl-isoxazole-3-carboxylic acid {2-[4-(2-methoxyphenyl)-piperazin-1-yl]-ethyl}-amide], in assay [1], the activity at 11 µM is 173%. Moreover, the Emax at 30 µM in assay [2] came to 382%.

Consider `O=C(NCCN(c1ccccc1)c1ccccc1)c1cc(-c2ccco2)on1` [Derivative (196), 5-furan-2-yl-isoxazole-3-carboxylic acid (2-diphenylamino-ethyl)-amide], for which the activity at 11 µM in assay [1] turned out to be 77%. For the same compound, in assay [2], the Emax at 30 µM was 35%.

For the compound `O=C(NCCNCc1ccccc1)c1cc(-c2ccco2)on1` [Derivative (197), 5-furan-2-yl-isoxazole-3-carboxylic acid (2-benzylamino-ethyl)-amide], the activity at 11 µM in assay [1] turned out to be 118%. Further, the Emax at 120 µM in assay [2] amounted to 84%.

Regarding `O=C(NCCNc1ccc(Cl)cc1)c1cc(-c2ccco2)on1` [Derivative (198), 5-furan-2-yl-isoxazole-3-carboxylic acid [2-(4-chloro-phenylamino)-ethyl]-amide], the activity at 11 µM in assay [1] came out at 100%. Moreover, in assay [2], the Emax at 30 µM was 50%.

For `CC(C)c1ccc(NCCNC(=O)c2cc(-c3ccco3)on2)cc1` [Derivative (199), 5-furan-2-yl-isoxazole-3-carboxylic acid [2-(4-isopropyl-phenylamino)-ethyl]-amide], in assay [1], the activity at 11 µM was found to be 63%. Besides, the Emax at 30 µM in assay [2] came to 45%.

For the compound `COc1ccc(NCCNC(=O)c2cc(-c3ccco3)on2)cc1` [Derivative (200), 5-furan-2-yl-isoxazole-3-carboxylic acid [2-(4-methoxy-phenylamino)-ethyl]-amide], the activity at 11 µM in assay [1] worked out at 162%. Further, in assay [2], the Emax at 30 µM was 106%.

For `O=C(NCCCNc1ccccc1)c1cc(-c2ccco2)on1` [Derivative (201), 5-furan-2-yl-isoxazole-3-carboxylic acid (3-phenylamino-propyl)-amide], in assay [1], the activity at 11 µM amounted to 859%. Further, the Emax at 1 µM in assay [2] is 545%.

As to `CN(CCNC(=O)c1cc(-c2ccco2)on1)c1ccccc1` [Derivative (202), 5-furan-2-yl-isoxazole-3-carboxylic acid [2-(methyl-phenyl-amino)-ethyl]-amide], in assay [1], the activity at 11 µM came to 109%. The Emax at 30 µM in assay [2] turned out to be 185%.

Take `CN(CCCNC(=O)c1cc(-c2ccco2)on1)c1ccccc1` [Derivative (203), 5-furan-2-yl-isoxazole-3-carboxylic acid [3-(methyl-phenyl-amino)-propyl]-amide]: in assay [1], the activity at 11 µM is 260%. For the same compound, in assay [2], the Emax at 30 µM is 851%.

`O=C(NCCNc1ccccn1)c1cc(-c2ccco2)on1` [Derivative (204), 5-furan-2-yl-isoxazole-3-carboxylic acid [2-(pyridin-2-ylamino)-ethyl]-amide]: the activity at 11 µM in assay [1] was determined as 150%. Moreover, the Emax at 120 µM in assay [2] came to 369%.

Turning to `O=C(CNC(=O)c1cc(-c2ccco2)on1)c1ccccc1` [Derivative (205), 5-furan-2-yl-isoxazole-3-carboxylic acid (2-oxo-2-phenyl-ethyl)-amide], the activity at 11 µM in assay [1] was found to be 58%. The Emax at 10 µM in assay [2] (Con. 10 μM) is 59%.

Take `O=C(CCNC(=O)c1cc(-c2cccs2)on1)c1ccccc1` [Derivative (206), 5-thiophen-2-yl-isoxazole-3-carboxylic acid (3-oxo-3-phenyl-propyl)-amide]: the activity at 11 µM in assay [1] turned out to be 772%. The Emax at 120 µM in assay [2] was found to be 584%.

For the compound `O=C(CNC(=O)c1cc(-c2ccco2)on1)Nc1ccccc1` [Derivative (207), 5-furan-2-yl-isoxazole-3-carboxylic acid phenylcarbamoylmethyl-amide], the activity at 11 µM in assay [1] was 47%. Further, the Emax at 120 µM in assay [2] is 34%.

As to `O=C(CNC(=O)c1cc(-c2ccco2)on1)Nc1ccccn1` [Derivative (208), 5-furan-2-yl-isoxazole-3-carboxylic acid (pyridin-2-ylcarbamoylmethyl)-amide], in assay [1], the activity at 11 µM was 57%. In assay [2], the Emax at 30 µM was determined as 110%.

For the compound `O=C(NCCNC(=O)c1cc(-c2cccs2)on1)c1ccccc1` [Derivative (210), 5-thiophen-2-yl-isoxazole-3-carboxylic acid (2-benzoylamino-ethyl)-amide], in assay [1], the activity at 11 µM came out at 202%. In addition, the Emax at 1 µM in assay [2] was found to be 475%.
